Experimental data reported in patent publication US9434735B2, “Amorphous form of 4-((4-(cyclopentyloxy)-5-(2-methylbenzo[d]oxazol-6-yl)-7h-pyrrolo[2,3-d]pyrimidin-2-yl)amino)-3-methoxy-n-methylbenzamide, compositions thereof and methods of their use” (Signal Pharmaceuticals, LLC, priority 2014, dated 2016).

Legend:
Type in all cases: physicochemical
[1] = Stability study of the amorphous form (HPLC purity, XRPD); details: over three months; HPLC purity (FIG. 6), XRPD (FIG. 7)
Procedure: FIG. 6 depicts a stability study of the amorphous form based on its HPLC purity over 3 months. FIG. 7 depicts a stability study of the amorphous form based on its XRPD over 3 months. Solid samples were analyzed by XRPD. XRPD analysis was conducted on a PANalytical Empyrean or a Thermo ARL X'TRA X-ray powder diffractometer using Cu Kα radiation at 1.54 Å.

[2] = Solubility of spray-dried amorphous form in ethanol; details: amorphous form obtained by spray-drying
Procedure: An amorphous form of Compound 1 was obtained from a spray-drying process of Compound 1 as depicted in FIG. 5. The spray-drying process comprised: (1) mixing Compound 1 with methanol at 25° C. to yield a suspension; (2) heating to 121° C.; (3) spray-drying under the conditions in Table 1 or Table 2 to yield an amorphous solid form; and (4) collecting the resulting solids. Alternatively, the spray drying process comprised: (1) mixing Compound 1 with acetone to yield a solution; (2) spray-drying under the conditions in Table 3 to yield an amorphous solid form; and (3) collecting the resulting solids.

[3] = Dissolution of amorphous form in reconstitution formulations

Stability (HPLC purity and XRPD) [1]: chemically and physically stable
Solubility in ethanol [2]: readily soluble
Dissolution Time ([3]; 17 mg amorphous Compound 1, 0.105 g EtOH, 0.656 g PEG-300, 0.239 g Saline): 1 min
Dissolution Time ([3]; #1 4.6 mL EtOH added to 700 mg amorphous Compound 1, #2 26.3 mL (25.1:1.2) PEG-300:Ethanol, #3 10.3 mL Saline): 1 min
Dissolution Time ([3]; #1 PEG-300/EtOH, #2 Saline): 9 min
Compound: CNC(=O)c1ccc(Nc2nc(OC3CCCC3)c3c(-c4ccc5nc(C)oc5c4)c[nH]c3n2)c(OC)c1 [amorphous Compound 1, 4-((4-(cyclopentyloxy)-5-(2-methylbenzo[d]oxazol-6-yl)-7H-pyrrolo[2,3-d]pyrimidin-2-yl)amino)-3-methoxy-N-methylbenzamide]
